These results are taken from US20200199528A1, “CELL CULTURE MEDIA FOR DIFFERENTIATION OF STEM CELLS INTO HEPATOCYTES” (KATHOLIEKE UNIVERSITEIT LEUVEN, priority 2017, published 2020).

One data set relates to HepG2 cells. How it is done: PSC, HC3X and HC6X cells were differentiated in a 384 well format. Cells were treated with 14 different concentrations of compounds in 6 repeats. As a negative control 41 wells were left untreated. After 24 h of exposure media was aspirated and fresh media was added to the cells supplemented with […] of DRAQ 7 (Abcam; ab109202) and Hoechst dye (1/1000, Sigma, 33258) for 25 min at 37°. Cells were fixed with 4% paraformaldehyde. Imaging was done using an Operetta High-Content Imaging System (Perkin Elmer) and image analysis was performed using Harmony software (Perkin Elmer). Relative cell number was calculated as the percentage of living cells (draq7 positive amount subtracted from the Hoechst positive amount) relative to the average of living cells in the control wells. As a positive control, 2 donors of PHHs were seeded at 10 000 cells per well. Drugs were administrated after 8 hours of attachment. HepG2 cells were seeded at 40 000 cells per well. For control conditions HepG2 cells were exposed after 2 days of culture.

Experimental for HC6X cells: We cultured HC6X cells (both in an H9 background and in an) BJ1-iPSc background in 384 well format in AAGLY-supplemented medium.
PSC, HC3X and HC6X cells were differentiated in a 384 well format. Cells were treated with 14 different concentrations of compounds in 6 repeats. As a negative control 41 wells were left untreated. After 24 h of exposure media was aspirated and fresh media was added to the cells supplemented with 0.3 mM of DRAQ 7 (Abcam; ab109202) and Hoechst dye (1/1000, Sigma, 33258) for 25 min at 37°. Cells were fixed with 4% paraformaldehyde. Imaging was done using an Operetta High-Content Imaging System (Perkin Elmer) and image analysis was performed using Harmony software (Perkin Elmer). Relative cell number was calculated as the percentage of living cells (draq7 positive amount subtracted from the Hoechst positive amount) relative to the average of living cells in the control wells. As a positive control, 2 donors of PHHs were seeded at 10 000 cells per well. Drugs were administrated after 8 hours of attachment. HepG2 cells were seeded at 40 000 cells per well. For control conditions HepG2 cells were exposed after 2 days of culture. For AAGLY conditions HepG2 cells were maintained in the supplemented medium for 30 days before exposure.

In the case of `CC(=O)Nc1ccc(O)cc1` [APAP, acetaminophen], the Toxicity entry was “no toxicity” with HC6X cells and “not able to pick up toxicity” with HepG2 cells.
